Data set [1] deals with HPV DNA / AIN. Particulars: cited from earlier work.
Data set [2] concerns anal intraepithelial neoplasia (AIN). Kind of data set: HRA with biopsies, case report Example 3. In kind it is in vivo, human. Particulars: Ex.3; for anal dysplasia, overall outcome of immunotherapy protocol: 5% imiquimod cream with perianal HPV-9 immunizations followed by 4-5 months of 2-3 times weekly intra-anal 5% 5-fluorouracil cream. An excerpt:
(§1) Case Report Summary: The patient is a HIV positive gay with chronic HIV infection who presents with recurrent high grade squamous intraepithelial lesion (HSIL) post multiple ablative treatments. The patient received treatment for their HIV disease with a combination of anti-retroviral medicatons (abacavir, etravirine, prezista and ritonavir which was later modified to dolutegravir, etravirine and prezista and ritonavir). Over the past two years the CD4 count has been in the range of 250-350 and there has been low level HIV viremia (40-400 copies range per ml of plasma) due to intermittent adherence. The patient has other co-morbid conditions including hepatitis C, hypertension, hyperlipidemia, osteoporosis, and high risk sexual activity.
(§2) May 29, 2015 Discussed immunotherapy for recurrent HSIL after failing ablative therapies described above. Patient received HPV-9 vaccine intramuscular in the deltoid. This is the start of the immunotherapy protocol. Patient starts the intra-anal application of 5% imiquimod cream three times per week.
(§3) Jan. 15, 2016 4th perianal HPV-9 vaccination given. Discontinue 5% intra-anal imiquimod cream and begin 5% 5-fluorouracil cream intra-anally three times a week for 20 weeks.

The nature of data set [3]: Side effects, case report Example 3. In kind it is in vivo, human. As to conditions: Ex.3; for most notable side effects of the immunotherapy protocol: 5% imiquimod cream and 5% 5-fluorouracil cream intra-anally, resolved on brief cessation or reduced frequency. The text has this: Aug. 7, 2015 HRA done and biopsies taken. […] Pt told to wait until irritation has abated before continuing the imiquimod cream treatments. First perianal HPV-9 vaccination given.
The above case report represents a case of recurrent anal HSIL status post multiple ablative procedures. The patient has HIV infection and thus is moderately immunosuppressed. In spite of the immunosuppression, the patient was able to clear not only HSIL (AIN 2 and AIN 3) but also was able to clear LSIL (AIN 1). The presence of a normal anal pap smear result on Jun. […] 20, 2016. […] It is presumed that the use of the 5-fluorouracil cream treated nests of dysplastic cells that if not treated would likely lead to recurrent LSIL or HSIL. Thus, the immunotherapy protocol may be useful for patients in a salvage situation who have failed multiple ablative procedures with recurrent HSIL in the setting of immunosuppression due to HIV infection. […] This might be due to the immunosuppression secondary to chronic HIV infection.

Data set [4] deals with HPV other high risk types. Kind of data set: Anal HPV typing/assay, case report Example 3. It counts as in vivo, human.
Source text: as §1, §2, §3

The nature of data set [5]: Tolerability, case report Example 1. In kind it is in vivo, human. As to conditions: Ex.1; intra-anal 5% imiquimod 3x/wk; resolved, restarted after several days to one week. The text has this:
On Dec. 29, 2014 the patient was again examined and had ASCUS anal pap smear. The anal pap was negative for high risk HPV types. […] The erythema and discomfort resolved and imiquimod was restarted after a period of several days to one week. On Jan. 27, 2015 the anal pap smear was normal and negative for high risk HPV DNA. They received the third perianal qHPV vaccine.

The test system of data set [6] is high risk (HR) HPV DNA. Put plainly: Anal pap high risk HPV DNA screen, case report Example 1. In kind it is in vivo, human. On the procedure: (§4) Case Report Summary: A HIV negative patient with multifocal AIN 2 and AIN 3 in the anal transitional zone was enrolled. The patient was treated with intra-anal imiquimod followed by an intramuscular dose of HPV4 followed by four perianal HPV4 immunizations, each separated by 3-4 weeks. The patient was screened for high risk (HR) HPV DNA on a weekly basis and had multiple biopsies to identify possible dysplasia.
(§5) Detailed Data and Results: A HIV negative person presented for routine health care. […] Patient was referred for HRA. […] 5, 2014. Biopsies indicated the following: distal AIN 1 at three o'clock; AIN 1 at 4 o'clock; AIN 2 at 7 o'clock; AIN 2 at 10 o'clock; and AIN 2 at 12 o'clock. FIGS. 1B and 1C are posterior and anterior views, respectively, showing circumferential staining of the anal canal. Patient received the first immunization with qHPV vaccine IM in the deltoid on Nov. 13, 2014. On Dec. 1, 2014, the patient received the first perianal qHPV vaccine. They started to use 5% imiquimod on Dec. 1, 2014 with one packet applied intra-anally three times weekly.

In data set [7] the test system is anal dysplasia. Kind of data set: Anal pap smear cytology, case report Example 1. In kind it is in vivo, human. The protocol:
as §4, §5

Data set [8] concerns anal intraepithelial neoplasia (AIN). Kind of data set: High resolution anoscopy (HRA) with biopsies, case report Example 1. In kind it is in vivo, human. On the procedure:
as §4, §5

Data set [9] deals with anal dysplasia. Put plainly: Anal pap smear cytology, case report Example 3. It counts as in vivo, human. As to conditions: Ex.3, imiquimod + HPV-9 vaccine.
Source text: as §1, §2, §3

Data set [10] deals with hepatitis C, genotype 1. Kind of data set: Hepatitis C treatment of the Example 3 patient. In kind it is in vivo, human. As to conditions: Ex.3 patient; 12 weeks of treatment; 12 weeks post completion of therapy.
Setting [11] is: imiquimod + HPV-9 vaccine, then intra-anal 5% 5-fluorouracil cream from Jan. 15, 2016, Apr. 21, 2016.
Where [12] appears, read: imiquimod + HPV-9 vaccine, then intra-anal 5% 5-fluorouracil cream from Jan. 15, 2016, Jun. 20, 2016.
Setting [13] is: Ex.1 HIV negative male with AIN 2/3, intra-anal 5% imiquimod 3x/wk + qHPV (HPV4) vaccine (IM, then 4 perianal).
Where [14] appears, read: Ex.1, imiquimod + qHPV vaccine, Dec. 11, 2014.
Where [15] appears, read: Ex.1, imiquimod + qHPV vaccine, Dec. 29, 2014.
The mark [16] stands for this setting: Ex.1, imiquimod + qHPV vaccine, Feb. 10, 2015.
Where [17] appears, read: Ex.1, imiquimod + qHPV vaccine, Feb. 25, 2015.
[18] abbreviates: Ex.1, imiquimod + qHPV vaccine, Jan. 27, 2015.
Setting [19] is: Ex.1, imiquimod + qHPV vaccine, Pathology Report I.
Setting [20] is: Ex.1, imiquimod + qHPV vaccine, Pathology Report II (Feb. 25, 2015).
Where [21] appears, read: then intra-anal 5% 5-fluorouracil cream from Jan. 15, 2016, Jun. 20, 2016.

Entries after “also recorded” stand apart in the source; their conditions may differ.

The values below come from patent US10561723B2, “Treatment and prevention of anal conditions” (priority 2015, dated 2020).

Regarding `CC(C)Cn1cnc2c(N)nc3ccccc3c21` [imiquimod, 3-(2-Methylpropyl)-3,5,8-triazatricyclo[7.4.0.0^2,6]trideca-1(9),2(6),4,7,10,12-hexaen-7-amine], the “developed recurrent AIN” value in data set [1] (after intra-anal 5% imiquimod cream, mean follow up approximately 30 months, often HPV types differing from start) is on record as 5 patient. The “HPV DNA viral loads” value in data set [1] (intra-anal 5% imiquimod cream three times weekly for 16 weeks, 19 HIV positive men with AIN) is listed as “decreased”. The “anal dysplasia, overall outcome of immunotherapy protocol” value in [2] was “clearance of anal dysplasia (AIN 1, AIN 2 and AIN 3)”. The HRA biopsies histology in data set [2] (imiquimod + HPV-9 vaccine IM, Aug. 7, 2015) is listed as 3 o'clock—AIN 2; 4 o'clock—AIN 1; 9 o'clock—AIN 1; 10 o'clock distal—AIN 1; 12 o'clock AIN 2; in data set [2] (setting [11]), 3 o'clock—AIN 1; 5 o'clock—AIN 1; 6 o'clock—AIN 1; 9 o'clock—AIN 1; 10 o'clock—benign; 12 o'clock—benign; in [2] (setting [12]), 3 o'clock—benign; 9 o'clock—benign anal mucosa; 10 o'clock—benign anal mucosa; 12 o'clock—benign anal mucosa; in [2] (imiquimod + HPV-9 vaccine, Dec. 9, 2015), 3 o'clock AIN—1; 6 o'clock—AIN 1; 9 o'clock—benign; in data set [2] (imiquimod + HPV-9 vaccine, Oct. 28, 2015) it was 1 o'clock—AIN 1; 4 o'clock—benign; 9 o'clock—AIN 1; 12 o'clock—AIN 1; in data set [2] (imiquimod + HPV-9 vaccine, Sep. 30, 2015), 3 o'clock—AIN 1; 4 o'clock—AIN 1; 9 o'clock—AIN 1; 10 o'clock—AIN 1; 12 o'clock—benign. In addition, the HRA biopsies histology entry in data set [8] (setting [14]) was “AIN 1 at 4 o'clock; AIN 2 at 7 o'clock and AIN 3 at 12 o'clock”; in data set [8] (setting [15]), “AIN 2 at 7 o'clock and focal AIN 1 at 12 o'clock”; in data set [8] (setting [16]), “normal histology at 4, AIN 1 at 10 and small focal AIN 2 at 12 o'clock”. Further, in data set [3], the “most notable side effects of the immunotherapy protocol” value is “anal and perianal irritation”. In addition, the “patient complaints due to imiquimod cream treatments” value in data set [3] (intra-anal 5% imiquimod cream 3x/wk, Aug. 7, 2015) was “anal irritation and spotting of blood per anus”. Moreover, the HPV typing entry in data set [4] (Ex.3 HIV positive male, recurrent HSIL after ablative treatments, intra-anal 5% imiquimod 3x/wk + HPV-9 vaccine IM (May 29, 2015), Aug. 7, 2015) was “positive for other high risk types”. Also, the HPV assay entry in data set [4] (Ex.3, imiquimod + HPV-9 vaccine (IM, 1 perianal), Sep. 30, 2015) was “continued presence of other HPV high risk types”. In data set [5], the “local adverse effect leading to interruptions of imiquimod cream” value is “increased perianal erythema”. Besides, the “HR HPV DNA, overall outcome” value in data set [6] (setting [13]) is reported as “loss of HR HPV DNA including HPV16”. Moreover, the “anal pap high risk HPV DNA” value in data set [6] (setting [14]), in data set [6] (setting [16]) and in [6] (setting [18]) was “negative” in each case. For the same compound, the “anal pap high risk HPV types” value in data set [6] (setting [15]) is on record as “negative”. Also, the “HPV DNA” value in data set [6] (setting [17]) is on record as “negative”. Moreover, in data set [7] (setting [13]), the “anal Pap smear, overall outcome” value is listed as “normalization of the anal Pap smear from ASCUS”. For the same compound, the “anal pap smear cytology” value was “ASCUS” in data set [7] (setting [15]); “normal; also recorded: negative for intraepithelial lesion and malignancy” in [7] (Ex.1, imiquimod + qHPV vaccine, Feb. 25, 2015 (Pathology Report II concurrent pap)); “normal” in data set [7] (setting [18]). Also, the anal pap cytology entry in data set [7] (Ex.1, imiquimod + qHPV vaccine, Feb. 10, 2015 (Pathology Report I concurrent pap)) was “normal; also recorded: negative for intraepithelial lesion and malignancy”; in [9] (setting [21]), “negative for intraepithelial lesion and malignancy”; in data set [9] (Oct. 28, 2015) it was “atypical cells of undetermined significance (ASCUS)”; in data set [9] (Sep. 30, 2015) it was “LSIL”. Moreover, the “anal dysplasia, overall outcome” value in data set [8] (setting [13]) is listed as “resolution of anal dysplasia”. In addition, the “anoscopist's observation of anal canal epithelium” value in [8] (setting [17]) was “remodeling of the anal canal epithelium, replacing thickened dysplastic epithelium with thin, translucent epithelium, which is normal”. The “biopsies at 2, 6, 10 and 12 o'clock” value in data set [8] (setting [18]) is “all normal without evidence of dysplasia”. Besides, the “biopsy diagnosis, anal canal 4 o'clock (transition zone)” value in data set [8] (setting [19]) was “no evidence of dysplasia or malignancy”. The “biopsy diagnosis, anal canal 10 o'clock (transition zone)” value in data set [8] (setting [19]) is given as “AIN 1”. Also, the “biopsy diagnosis, anal canal 12 o'clock (transition zone)” value in [8] (setting [19]) was “AIN 2”. Further, the “biopsy diagnosis, anal canal 5 o'clock” value in data set [8] (setting [20]) is “no evidence of dysplasia or malignancy”. The “biopsy diagnosis, anal canal 7 o'clock” value in data set [8] (setting [20]) is “no evidence of dysplasia or malignancy”. For the same compound, the “biopsy diagnosis, anal canal 10 o'clock” value in data set [8] (setting [20]) is “no evidence of dysplasia or malignancy”. Besides, the “biopsy diagnosis, anal canal 12 o'clock” value in data set [8] (setting [20]) was “no evidence of dysplasia or malignancy”.

In the case of `CCN(CC)CC(=O)Nc1c(C)cccc1C` [lidocaine], the “burning at the site of HPV vaccination” value in [3] (local infusion of 1% lidocaine prior to perianal HPV-9 vaccinations) is listed as “much less burning”.

Turning to sofosbuvir/ledipasvir, the virologic response result in data set [10] is reported as “sustained virologic response”.

As to `O=c1[nH]cc(F)c(=O)[nH]1` [5-fluorouracil], in data set [2], the “anal dysplasia, overall outcome of immunotherapy protocol” value was “clearance of anal dysplasia (AIN 1, AIN 2 and AIN 3)”. In addition, the figures for the HRA biopsies histology in [2] (setting [11]) and in data set [2] (setting [12]) were 3 o'clock—AIN 1; 5 o'clock—AIN 1; 6 o'clock—AIN 1; 9 o'clock—AIN 1; 10 o'clock—benign; 12 o'clock—benign and 3 o'clock—benign; 9 o'clock—benign anal mucosa; 10 o'clock—benign anal mucosa; 12 o'clock—benign anal mucosa, respectively. Moreover, the “most notable side effects of the immunotherapy protocol” value in data set [3] was “anal and perianal irritation”. The anal pap cytology entry in [9] (setting [21]) is “negative for intraepithelial lesion and malignancy”.
